These results are taken from US10980892B2, “Methods for the treatment of leptomeningeal carcinomatosis” (Angiochem Inc., priority 2015, dated 2021).

Data set [1] relates to leptomeningeal carcinomatosis. Description: Treatment of individual LC subjects with ANG1005 (Subjects 2, 3, 4, 8). Format: in vivo, human. From the text:
Subject 2 presented at the time of treatment with ANG1005 with an active tumor extending from the deep portion of the surgical cavity to the right tentorial surface and along the lateral right temporal occipital dural surface. Subject 2 started treatment with ANG1005 in October 2014 and received 7 cycles (once every three weeks). Treatment was terminated due to clinical disease progression.
Subject 3 presented at the time of treatment with ANG1005 with numerous (>10) brain metastases all of which had increased in size despite prior treatment. Extensive scattered osseous metastatic disease in head/neck. After presenting with a numb chin (left trigeminal cranial nerve deficits), Subject 3 was also found to have leptomeningeal disease. Subject 3 started treatment with ANG1005 in September 2014 and received 5 cycles (once every three weeks). Treatment was terminated due to adverse event (pneumonia).
Subject 4 is a person diagnosed in October 2011 with HER2+/ER−/PgR− ductal carcinoma in situ. In November 2012, Subject 4 was diagnosed with brain metastases, and in March 2015 the brain metastases relapsed with leptomeningeal carcinomatosis. Subject 4 previously received several courses of therapy including carboplatin from October to November 2011, denosumab from November 2011 to November 2012, paclitaxel from December 2011 to March 2012, WBRT, transtuzumab from May 2012 to November 2012, and kadcyla from April 2013 to December 2014. Subject 4 presented at the time of treatment with ANG1005 with parenchymal metastases present in the cerebellum and widespread LC of the cerebellum and cerebral hemispheres. In addition, Subject 4 presented with mild ventricular enlargement with compression upon the fourth ventricle and cutflow tracts. Subject 4 started treatment with ANG1005 in March 2015 and received 8 cycles (once every three weeks). Subject withdrew from treatment due to low performance scores.
Subject 8 started treatment with ANG1005 in April 2015 and received 2 cycles (once every three weeks). Subject 8 terminated from treatment in July 2015 due to clinical progression.

Data set [2] has as its system leptomeningeal carcinomatosis. Kind of data set: Kaplan-Meier estimates of survival for subjects with LC. Format: in vivo, human. The conditions noted are these: compared to historical median overall survival of 3-6 months following aggressive treatment. From the text: The Kaplan-Meier method was used to estimate the overall survival of LC subjects treated with ANG1005.

Data set [3] relates to leptomeningeal carcinomatosis (LC). Description: Treatment of LC in breast cancer subjects, CNS RECIST brain parenchymal tumor response. Type of data set: in vivo, human. The conditions noted are these: 600 mg/m^2 iv tri-weekly. Here is the method:
Twenty-eight subjects diagnosed with LC were administered 600 mg/m^2 of ANG1005 intravenously on a tri-weekly schedule. The subjects received between one and nine cycles of ANG1005.
The results of the treatment of the subjects according to CNS Response Evaluation Criteria in Solid Tumors (RECIST) based on brain parenchymal tumor response is shown in Table 2.

The subject of data set [4] is LRP receptor. Description: Inhibition of brain uptake of an Angiopep conjugate by LRP ligands. From the text:
(§1) The methods of the invention may be especially useful in treating cancers having cells that express low density lipoprotein-related protein (LRP) receptor. The LRP receptor is expressed on the surface of cells, and is capable of binding to various substrates including aprotinin. The polypeptides described herein were designed based on the consensus kunitz-domain sequences that act as LRP receptor ligands (see, e.g., PCT Publication No. WO 2004/060403). Uptake of the conjugates including Angiopep-1 or Angiopep-2 is inhibited by LRP ligands, thus indicating involvement of LRP in this process.

The target of data set [5] is T1, LRP receptor (Homo sapiens, UniProt Q07954).
T1 construct: The LRP receptor is expressed on the surface of cells; endogenous in cells
Kind of data set: Inhibition of uptake of Angiopep conjugates into cells. Type of data set: cell-based. Particulars: Angiopep-2 10 or 100 μM.
Excerpt: as §1

T1 sequence (Q07954 20-4544): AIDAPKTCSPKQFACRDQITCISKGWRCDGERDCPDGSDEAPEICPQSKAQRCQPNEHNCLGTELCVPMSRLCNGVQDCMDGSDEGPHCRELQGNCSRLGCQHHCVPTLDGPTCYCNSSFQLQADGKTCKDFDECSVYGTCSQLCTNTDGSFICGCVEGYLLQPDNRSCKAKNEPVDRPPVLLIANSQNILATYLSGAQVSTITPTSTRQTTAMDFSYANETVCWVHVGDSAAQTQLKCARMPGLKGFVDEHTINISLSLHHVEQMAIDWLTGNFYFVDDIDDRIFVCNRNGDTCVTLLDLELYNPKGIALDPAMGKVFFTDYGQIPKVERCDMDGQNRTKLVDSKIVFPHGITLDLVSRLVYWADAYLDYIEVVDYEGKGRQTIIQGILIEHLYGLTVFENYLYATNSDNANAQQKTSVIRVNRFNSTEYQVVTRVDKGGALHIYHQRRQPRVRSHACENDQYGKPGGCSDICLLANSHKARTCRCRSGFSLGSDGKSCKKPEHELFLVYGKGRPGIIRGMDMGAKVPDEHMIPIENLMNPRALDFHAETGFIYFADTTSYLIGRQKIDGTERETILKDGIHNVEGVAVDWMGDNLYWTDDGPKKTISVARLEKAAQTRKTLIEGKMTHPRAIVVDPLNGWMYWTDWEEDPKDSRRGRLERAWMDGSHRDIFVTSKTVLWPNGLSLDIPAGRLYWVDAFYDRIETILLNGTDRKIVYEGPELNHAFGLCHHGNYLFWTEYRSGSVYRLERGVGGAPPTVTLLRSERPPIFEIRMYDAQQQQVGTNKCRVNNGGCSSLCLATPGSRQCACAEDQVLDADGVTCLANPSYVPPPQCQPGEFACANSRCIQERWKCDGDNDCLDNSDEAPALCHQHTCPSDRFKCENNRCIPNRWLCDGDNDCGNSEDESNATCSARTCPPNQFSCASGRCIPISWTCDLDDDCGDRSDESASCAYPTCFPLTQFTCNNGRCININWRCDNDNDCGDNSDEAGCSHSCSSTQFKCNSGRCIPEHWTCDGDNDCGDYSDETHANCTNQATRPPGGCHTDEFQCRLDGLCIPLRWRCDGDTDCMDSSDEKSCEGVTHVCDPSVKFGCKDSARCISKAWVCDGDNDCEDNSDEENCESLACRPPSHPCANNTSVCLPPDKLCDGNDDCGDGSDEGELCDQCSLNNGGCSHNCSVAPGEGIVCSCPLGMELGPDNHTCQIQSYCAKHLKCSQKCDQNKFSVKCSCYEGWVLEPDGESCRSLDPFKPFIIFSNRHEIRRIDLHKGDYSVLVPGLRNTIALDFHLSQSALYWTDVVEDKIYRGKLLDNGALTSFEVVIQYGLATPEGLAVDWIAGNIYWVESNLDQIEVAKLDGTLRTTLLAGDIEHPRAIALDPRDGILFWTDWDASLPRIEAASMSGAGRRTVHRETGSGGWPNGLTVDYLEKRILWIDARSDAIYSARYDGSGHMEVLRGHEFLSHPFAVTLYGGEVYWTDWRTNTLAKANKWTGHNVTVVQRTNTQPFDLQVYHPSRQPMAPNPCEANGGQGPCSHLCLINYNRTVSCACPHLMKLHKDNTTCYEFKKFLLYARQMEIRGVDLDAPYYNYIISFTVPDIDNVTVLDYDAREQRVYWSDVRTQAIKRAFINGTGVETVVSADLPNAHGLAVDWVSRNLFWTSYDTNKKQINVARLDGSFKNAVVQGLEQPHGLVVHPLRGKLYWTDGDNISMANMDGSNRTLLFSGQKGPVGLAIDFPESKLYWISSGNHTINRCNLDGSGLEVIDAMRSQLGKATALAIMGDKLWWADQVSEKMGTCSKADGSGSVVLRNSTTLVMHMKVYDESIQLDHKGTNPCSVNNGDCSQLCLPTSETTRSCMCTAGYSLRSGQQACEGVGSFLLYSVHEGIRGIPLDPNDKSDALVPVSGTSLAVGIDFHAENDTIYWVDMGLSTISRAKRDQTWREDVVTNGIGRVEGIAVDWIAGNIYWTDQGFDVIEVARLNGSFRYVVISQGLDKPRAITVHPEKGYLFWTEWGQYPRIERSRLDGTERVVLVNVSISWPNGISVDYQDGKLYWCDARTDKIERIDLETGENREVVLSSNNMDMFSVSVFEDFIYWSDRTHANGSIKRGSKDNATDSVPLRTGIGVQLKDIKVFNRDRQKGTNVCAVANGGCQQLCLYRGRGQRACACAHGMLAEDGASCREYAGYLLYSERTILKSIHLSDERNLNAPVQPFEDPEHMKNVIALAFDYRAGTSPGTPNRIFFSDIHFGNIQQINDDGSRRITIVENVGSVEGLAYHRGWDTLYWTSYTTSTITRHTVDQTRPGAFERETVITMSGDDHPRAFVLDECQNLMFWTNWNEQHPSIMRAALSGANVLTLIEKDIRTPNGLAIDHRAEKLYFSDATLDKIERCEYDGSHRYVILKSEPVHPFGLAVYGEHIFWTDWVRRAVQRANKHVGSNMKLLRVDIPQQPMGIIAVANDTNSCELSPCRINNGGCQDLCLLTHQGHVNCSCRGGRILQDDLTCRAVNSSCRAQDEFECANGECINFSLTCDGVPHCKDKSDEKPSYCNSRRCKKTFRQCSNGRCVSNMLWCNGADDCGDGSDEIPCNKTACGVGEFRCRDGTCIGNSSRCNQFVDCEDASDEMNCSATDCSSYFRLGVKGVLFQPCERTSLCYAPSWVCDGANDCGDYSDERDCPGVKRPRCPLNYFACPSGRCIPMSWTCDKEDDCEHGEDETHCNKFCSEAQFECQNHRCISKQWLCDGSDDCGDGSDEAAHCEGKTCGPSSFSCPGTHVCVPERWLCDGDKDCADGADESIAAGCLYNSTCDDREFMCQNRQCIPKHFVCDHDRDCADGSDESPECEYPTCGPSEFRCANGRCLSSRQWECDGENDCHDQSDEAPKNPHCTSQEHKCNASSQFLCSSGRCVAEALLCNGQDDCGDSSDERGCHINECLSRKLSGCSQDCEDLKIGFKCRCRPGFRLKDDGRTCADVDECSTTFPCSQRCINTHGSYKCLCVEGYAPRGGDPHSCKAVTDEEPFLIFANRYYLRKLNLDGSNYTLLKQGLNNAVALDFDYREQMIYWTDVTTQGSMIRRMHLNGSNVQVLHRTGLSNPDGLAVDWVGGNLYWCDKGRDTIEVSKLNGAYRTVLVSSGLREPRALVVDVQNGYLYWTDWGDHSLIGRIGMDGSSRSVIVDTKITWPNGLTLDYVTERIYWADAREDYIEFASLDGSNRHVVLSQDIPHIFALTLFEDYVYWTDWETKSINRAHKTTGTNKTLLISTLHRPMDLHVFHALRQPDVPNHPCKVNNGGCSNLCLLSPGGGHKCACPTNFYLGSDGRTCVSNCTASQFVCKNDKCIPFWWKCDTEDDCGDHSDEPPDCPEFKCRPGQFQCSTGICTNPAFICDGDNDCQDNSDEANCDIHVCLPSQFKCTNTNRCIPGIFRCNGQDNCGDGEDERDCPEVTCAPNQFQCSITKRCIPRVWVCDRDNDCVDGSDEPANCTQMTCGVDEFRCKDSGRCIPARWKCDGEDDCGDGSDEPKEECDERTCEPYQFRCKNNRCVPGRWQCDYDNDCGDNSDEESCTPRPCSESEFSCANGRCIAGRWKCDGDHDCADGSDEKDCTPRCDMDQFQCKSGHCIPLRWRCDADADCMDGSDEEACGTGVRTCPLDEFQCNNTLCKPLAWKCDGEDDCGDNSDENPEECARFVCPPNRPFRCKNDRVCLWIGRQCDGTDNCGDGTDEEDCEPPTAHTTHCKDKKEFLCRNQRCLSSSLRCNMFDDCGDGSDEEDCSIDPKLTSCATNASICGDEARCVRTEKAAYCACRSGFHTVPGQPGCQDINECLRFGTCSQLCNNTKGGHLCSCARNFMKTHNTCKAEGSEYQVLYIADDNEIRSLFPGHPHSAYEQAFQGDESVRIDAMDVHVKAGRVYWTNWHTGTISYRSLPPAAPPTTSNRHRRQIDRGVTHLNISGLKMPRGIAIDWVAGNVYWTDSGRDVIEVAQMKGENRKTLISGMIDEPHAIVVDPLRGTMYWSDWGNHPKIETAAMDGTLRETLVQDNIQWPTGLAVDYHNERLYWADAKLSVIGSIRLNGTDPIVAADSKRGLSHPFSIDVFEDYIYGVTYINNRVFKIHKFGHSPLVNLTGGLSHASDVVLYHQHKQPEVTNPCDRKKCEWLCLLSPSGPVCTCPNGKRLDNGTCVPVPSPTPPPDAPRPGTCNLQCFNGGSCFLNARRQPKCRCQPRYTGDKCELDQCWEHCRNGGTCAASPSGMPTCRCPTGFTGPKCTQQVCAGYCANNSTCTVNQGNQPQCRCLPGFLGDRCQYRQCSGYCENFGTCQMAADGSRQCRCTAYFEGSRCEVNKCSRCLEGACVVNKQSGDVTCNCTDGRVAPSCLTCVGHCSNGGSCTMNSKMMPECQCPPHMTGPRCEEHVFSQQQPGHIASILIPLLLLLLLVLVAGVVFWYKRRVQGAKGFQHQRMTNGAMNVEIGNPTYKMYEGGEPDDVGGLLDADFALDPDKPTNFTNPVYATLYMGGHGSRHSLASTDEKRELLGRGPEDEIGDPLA

For `CC(=O)O[C@H]1C(=O)[C@@]2(C)[C@H]([C@H](OC(=O)c3ccccc3)[C@]3(O)C[C@H](OC(=O)C(OC(=O)CCC(=O)NCCCC[C@H](NN[C@@H](Cc4ccccc4)C(=O)C(=O)C(CC(N)=O)NC(=O)[C@H](CC(N)=O)NC(=O)[C@H](CCCNC(=N)N)NC(=O)[C@H](CCCCNC(=O)CCC(=O)O[C@@H](C(=O)O[C@H]4C[C@@]5(O)[C@@H](OC(=O)c6ccccc6)[C@@H]6[C@]7(OC(C)=O)CO[C@@H]7C[C@H](O)[C@@]6(C)C(=O)[C@H](OC(C)=O)C(=C4C)C5(C)C)[C@@H](NC(=O)c4ccccc4)c4ccccc4)NNCC(=O)C(=O)[C@H](CCCNC(=N)N)NC(=O)[C@H](CO)NC(=O)CNC(=O)CNC(=O)C(Cc4ccc(O)cc4)NC(=O)[C@H](Cc4ccccc4)NC(=O)C(Cc4ccccc4)NCC(=O)[C@H](NC(=O)CCC(=O)O[C@@H](C(=O)O[C@H]4C[C@@]5(O)[C@@H](OC(=O)c6ccccc6)[C@@H]6[C@]7(OC(C)=O)CO[C@@H]7C[C@H](O)[C@@]6(C)C(=O)[C@H](OC(C)=O)C(=C4C)C5(C)C)[C@@H](NC(=O)c4ccccc4)c4ccccc4)C(C)O)C(=O)N[C@H](C(=O)NC(CCC(=O)O)C(=O)N[C@@H](CCC(=O)O)C(=O)NC(C=O)Cc4ccc(O)cc4)[C@@H](C)O)[C@@H](NC(=O)c4ccccc4)c4ccccc4)C(C)=C1C3(C)C)[C@]1(OC(C)=O)CO[C@@H]1C[C@@H]2O` (stereo partly shown) [ANG1005], the “Response of leptomeningeal carcinomatosis” value in data set [1] (Subject 2, HER2+/ER−/PgR+, 7 cycles once every three weeks, dural lesion no longer apparent, leptomeningeal nodule decreasing in size) was “responded”. Further, in data set [1] (Subject 3, HER2+/ER−/PgR−, 5 cycles once every three weeks), the “Response of leptomeningeal carcinomatosis” value was “improved both radiographically and clinically”. In addition, the “Adverse event causing treatment termination” value in data set [1] (Subject 3, after 5 cycles once every three weeks) is listed as “pneumonia”. Also, the “Response of leptomeningeal carcinomatosis” value in data set [1] (Subject 4, HER2+/ER−/PgR−, 8 cycles once every three weeks, diminished nodular leptomeningeal enhancement, decreased leptomeningeal tumor burden) was “responded”. For the same compound, the “Response of leptomeningeal carcinomatosis” value in data set [1] (Subject 8, HER2+/ER+/PgR−, 2 cycles once every three weeks, improvement in extensive LC in the cerebellum) is “responded”. Further, the “Median overall survival (Kaplan-Meier estimate)” value in data set [2] is “increase median overall survival”. In data set [3] (All Patients (n = 23)), the “Partial Response (PR), number of patients” value stood at 5; the “Partial Response (PR), percent of patients” value is reported as “(22%)”; the “Patient Benefit (PR + SD), number of patients” value was 17; the “Progressive Disease, number of patients” value is reported as 6. Besides, in data set [3] (All Patients (n = 23)), the “Progressive Disease, percent of patients” value is listed as “(26%)”; the “Stable Disease (SD), number of patients” value amounted to 12; the “Stable Disease (SD), percent of patients” value is recorded as “(52%)”. In data set [3] (HER2+ (n = 15)), the “Partial Response (PR), number of patients” value is listed as 4; the “Partial Response (PR), percent of patients” value is recorded as “(27%)”; the “Patient Benefit (PR + SD), number of patients” value amounted to 12; the “Progressive Disease, number of patients” value was found to be 3. Further, in data set [3] (HER2+ (n = 15)), the “Progressive Disease, percent of patients” value is recorded as “(20%)”; the “Stable Disease (SD), number of patients” value was found to be 8; the “Stable Disease (SD), percent of patients” value is “(53%)”. Moreover, in data set [3] (HER2− (n = 8)), the “Partial Response (PR), number of patients” value was 1; the “Partial Response (PR), percent of patients” value was “(12.5%)”; the “Patient Benefit (PR + SD), number of patients” value is on record as 5; the “Patient Benefit (PR + SD), percent of patients” value is “(62.5%)”. Further, in data set [3] (HER2− (n = 8)), the “Progressive Disease, number of patients” value is 3; the “Progressive Disease, percent of patients” value was “(37.5%)”; the “Stable Disease (SD), number of patients” value came out at 4; the “Stable Disease (SD), percent of patients” value is given as “(50%)”.
Turning to RAP: LRP ligand, the “Effect on brain uptake of an Angiopep conjugate” value with LRP receptor [4] (RAP 200 nM) was “capable of reducing brain uptake”.
With TFFYGGSRGKRNNFKTEEY [Angiopep-2], the “Effect on uptake of the conjugates into cells” value with LRP receptor [5] is reported as “able to reduce uptake”.
On to aprotinin, for which, in the data set on LRP receptor [4] (aprotinin 10 μM), the “Effect on brain uptake of an Angiopep conjugate” value was “capable of reducing brain uptake”.
